Data set [1] can be described thus: In vitro stability in human plasma. Type of data set: in vitro ADME. The following applies: 5 μM, 37° C. The procedure:
(§1) Bioavailability can be estimated by compound stability when exposed to conditions in the body. As an initial assessment of stability properties in a variety of conditions present in animals, exemplary compounds were tested for stability in a battery of simulated body compartments. Compounds were tested for stability in the following solutions: simulated gastric fluid (SGF: 34.2 mM NaCl, pH 1.2), simulated gastric fluid with the digestive enzyme pepsin (SGF+Enzyme: SGF with 3.2 mg/ml pepsin), simulated intestinal fluid with the mixture of enzymes in porcine pancreatin (SIF+Enzyme: 28.7 mM NaH2PO4, 105.7 mM NaCl, pH 6.8, 10 mg/ml pancreatin), rat plasma, and human plasma.
(§2) Test compounds were incubated at a final concentration of 5 μM in the above solutions at 37° C. with samples removed at the following time points: 0, 1, 2, and 4 hours. Reactions were stopped and prepared for quantification by addition of excess quench solution containing an internal standard (acetonitrile, 200 ng/mL bucetin). Test compound and internal standard in each sample was quantified by LC-MS/MS, and after internal normalization to bucetin, test compound concentration was expressed as a percentage of concentration at the 0-hour time point. Stability in the relevant test solution was then determined by the percent remaining at the 4-hour time point.

Data set [2] can be described thus: In vivo tissue distribution. The conditions noted are these: rat, 10 minutes post administration. Further details: species or system Sprague-dawley rats. The method, then: The rate of distribution to target tissues is an important feature of therapeutic molecules. Tissue distribution of exemplary compounds was performed in mixed-sex Sprague-dawley rats. Test compounds were delivered via tail vein injection (IV) and tissues were collected at Tmax (10 minutes post administration). Animals were deeply anesthetized with isoflurane and whole blood was collected from the right atrium and processed by centrifugation to produce plasma. Animals were then fully perfused with PBS administered to the left ventricle to prevent blood contamination of tissues.
Tissues were collected and homogenized, and compound content in the target tissue was quantified by LC-MS/MS. Tissue distribution rates were determined by dividing the tissue concentration of compound by the plasma concentration and multiplying by 100.

A short description of data set [3]: In vitro stability in rat plasma. The following applies: 5 μM, 37° C. Type of data set: in vitro ADME. The method, then:
as §1, §2

The test system of another data set is MDCK cells. Briefly: Cell scattering behavior assay. The following applies: with 5 ng/mL HGF, 24 hours, normalized particle count compared to HGF treatment alone. Further details: key: − indicates that the compound failed to significantly promote cell scattering behavior; + indicates maximum potency at or above 100 nM; ++ indicates maximum potency at or above 10 nM; +++ indicates maximum potency at or above 1 nM; ++++ indicates maximum potency at or above 0.1 nM. Format: cell-based. The gist of the method: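 MDCK cells starved 2 h in serum-free DMEM, then treated 24 h at 37 °C with compounds plus 5 ng/mL HGF. Cells were ethanol-fixed, WGA488-stained and imaged. Scattering was scored as particle count normalized to stained area, with activity taken as a statistical increase in normalized particle count over HGF alone.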

The results in this text go back to patent US20250041307A1, “Uses of Bicyclic Compounds for the Treatment of Diseases” (Athira Pharma, Inc., priority 2021, published 2025).

The structures appear in SMILES notation.

On to `CC1C(=O)N(CCC2CCC2)CC2N(C(=O)c3ccc(C(F)(F)F)cc3)CCC(=O)N12` (stereo not shown) [Compound 20], for which the “Human Plasma, compound remaining after 4 hours” value (shortened to “Human Plasma, compound remaining”) in data set [1] is “+++ (+++ indicates 80-99% compound remaining after 4 hours)”. Also, in data set [2], the “Tissue Distribution (% Plasma exposure at 10 min post IV dose) Brain” value was “++++ (++++ indicates distribution above 70%)”; the “Tissue Distribution (% Plasma exposure at 10 min post IV dose) Cerebellum” value is “++++ (++++ indicates distribution above 70%)”; the “Tissue Distribution (% Plasma exposure at 10 min post IV dose) Cortex” value is on record as “++++ (++++ indicates distribution above 70%)”; the “Tissue Distribution (% Plasma exposure at 10 min post IV dose) Hippocampus” value was “+++ (+++ indicates distribution between 40 and 69%)”. For the same compound, the “Tissue Distribution (% Plasma exposure at 10 min post IV dose) Sciatic Nerve” value in data set [2] is listed as “++++ (++++ indicates distribution above 70%)”. The “Rat Plasma, compound remaining after 4 hours” value (“Rat Plasma, compound remaining” below) in data set [3] is given as “++ (++ indicates 40-79% compound remaining after 4 hours)”. Also, in the data set with MDCK cells, the Potency result is recorded as “+++ (+++ indicates maximum potency at or above 1 nM)”.
Turning to `CCCCN1CC2N(C(=O)c3ccc(OC(F)F)cc3)CCC(=O)N2C(C)C1=O` (stereo not shown) [Compound 17], the “Human Plasma, compound remaining” value in data set [1] is “+++ (+++ indicates 80-99% compound remaining after 4 hours)”. Further, the “Rat Plasma, compound remaining” value in data set [3] is given as “++ (++ indicates 40-79% compound remaining after 4 hours)”. In the data set with MDCK cells, the Potency result is listed as “−”.
Consider `C=CCCN1CC2N(C(=O)c3ccc(C(F)(F)F)cc3)CCC(=O)N2C(C)C1=O` (stereo not shown) [Compound 22], for which the “Human Plasma, compound remaining” value in data set [1] is on record as “+++ (+++ indicates 80-99% compound remaining after 4 hours)”. Besides, in data set [2], the “Tissue Distribution (% Plasma exposure at 10 min post IV dose) Brain” value was “++ (++ indicates distribution between 5 and 39%)”; the “Tissue Distribution (% Plasma exposure at 10 min post IV dose) Cerebellum” value was “++ (++ indicates distribution between 5 and 39%)”; the “Tissue Distribution (% Plasma exposure at 10 min post IV dose) Cortex” value is “++ (++ indicates distribution between 5 and 39%)”; the “Tissue Distribution (% Plasma exposure at 10 min post IV dose) Hippocampus” value is “++ (++ indicates distribution between 5 and 39%)”. The “Tissue Distribution (% Plasma exposure at 10 min post IV dose) Sciatic Nerve” value in data set [2] is “+++ (+++ indicates distribution between 40 and 69%)”. Further, in data set [3], the “Rat Plasma, compound remaining” value is “+++ (+++ indicates 80-99% compound remaining after 4 hours)”. For the same compound, the Potency entry with MDCK cells is listed as “++ (++ indicates maximum potency at or above 10 nM)”.
On to `CC1C(=O)N(CCC2CCCC2)CC2N(C(=O)c3ccc(C(F)(F)F)cc3)CCC(=O)N12` (stereo not shown) [Compound 19], for which the “Human Plasma, compound remaining” value in data set [1] was “+++ (+++ indicates 80-99% compound remaining after 4 hours)”. The “Rat Plasma, compound remaining” value in data set [3] was “+++ (+++ indicates 80-99% compound remaining after 4 hours)”. Also, in the data set on MDCK cells, the Potency result was “+++ (+++ indicates maximum potency at or above 1 nM)”.
As for `CCC(C)CN1CC2N(C(=O)c3ccc(C(F)(F)F)c(Cl)c3)CCC(=O)N2C(C)C1=O` (stereo not shown) [Compound 12, 1-(3-chloro-4-(trifluoromethyl)benzoyl)-6-methyl-8-(2-methylbutyl)hexahydro-4H-pyrazino[1,2-a]pyrimidine-4,7(6H)-dione], in data set [1], the “Human Plasma, compound remaining” value is “+++ (+++ indicates 80-99% compound remaining after 4 hours)”. For the same compound, in data set [2], the “Tissue Distribution (% Plasma exposure at 10 min post IV dose) Brain” value was “++ (++ indicates distribution between 5 and 39%)”; the “Tissue Distribution (% Plasma exposure at 10 min post IV dose) Cerebellum” value was “++ (++ indicates distribution between 5 and 39%)”; the “Tissue Distribution (% Plasma exposure at 10 min post IV dose) Cortex” value is “++ (++ indicates distribution between 5 and 39%)”; the “Tissue Distribution (% Plasma exposure at 10 min post IV dose) Hippocampus” value is “++ (++ indicates distribution between 5 and 39%)”. Also, the “Tissue Distribution (% Plasma exposure at 10 min post IV dose) Sciatic Nerve” value in data set [2] was “+++ (+++ indicates distribution between 40 and 69%)”. In addition, the “Rat Plasma, compound remaining” value in data set [3] is recorded as “++++ (++++ indicates 100% compound remaining after 4 hours)”. For the same compound, the Potency entry with MDCK cells is “++ (++ indicates maximum potency at or above 10 nM)”.
Take `CCC(C)CN1CC2N(Cc3ccc(O)nc3)CCC(=O)N2[C@@H](C)C1=O` (stereo partly shown) [Compound 7a]: in data set [2], the “Tissue Distribution (% Plasma exposure at 10 min post IV dose) Brain” value is “+ (+ indicates distribution between 0.05 and 5%)”; the “Tissue Distribution (% Plasma exposure at 10 min post IV dose) Cerebellum” value is “+ (+ indicates distribution between 0.05 and 5%)”; the “Tissue Distribution (% Plasma exposure at 10 min post IV dose) Cortex” value is “+ (+ indicates distribution between 0.05 and 5%)”; the “Tissue Distribution (% Plasma exposure at 10 min post IV dose) Hippocampus” value is “+ (+ indicates distribution between 0.05 and 5%)”. In addition, in data set [2], the “Tissue Distribution (% Plasma exposure at 10 min post IV dose) Muscle” value is “++ (++ indicates distribution between 5 and 39%)”; the “Tissue Distribution (% Plasma exposure at 10 min post IV dose) Sciatic Nerve” value is “++++ (++++ indicates distribution above 70%)”. Also, in the data set on MDCK cells, the Potency entry is “++ (++ indicates maximum potency at or above 10 nM)”.
For `CCC(C)CN1CC2N(C(=O)c3ccc(F)cc3)CCC(=O)N2C(C)C1=O` (stereo not shown) [Compound 11, 1-(4-fluorobenzoyl)-6-methyl-8-(2-methylbutyl)hexahydro-4H-pyrazino[1,2-a]pyrimidine-4,7(6H)-dione], the “Human Plasma, compound remaining” value in data set [1] is on record as “+++ (+++ indicates 80-99% compound remaining after 4 hours)”. In addition, in data set [2], the “Tissue Distribution (% Plasma exposure at 10 min post IV dose) Brain” value is “++ (++ indicates distribution between 5 and 39%)”; the “Tissue Distribution (% Plasma exposure at 10 min post IV dose) Cerebellum” value was “+ (+ indicates distribution between 0.05 and 5%)”; the “Tissue Distribution (% Plasma exposure at 10 min post IV dose) Cortex” value is “+ (+ indicates distribution between 0.05 and 5%)”; the “Tissue Distribution (% Plasma exposure at 10 min post IV dose) Hippocampus” value is “+ (+ indicates distribution between 0.05 and 5%)”. Also, the “Tissue Distribution (% Plasma exposure at 10 min post IV dose) Sciatic Nerve” value in data set [2] is “++ (++ indicates distribution between 5 and 39%)”. For the same compound, in data set [3], the “Rat Plasma, compound remaining” value is given as “++++ (++++ indicates 100% compound remaining after 4 hours)”. Besides, the Potency entry in the data set on MDCK cells is given as “++ (++ indicates maximum potency at or above 10 nM)”.
For the compound `CCC(C)CN1CC2N(Cc3ccc(OC(F)F)cc3)CCC(=O)N2[C@@H](C)C1=O` (stereo partly shown) [Compound 6a], the “Human Plasma, compound remaining” value in data set [1] is “++ (++ indicates 40-79% compound remaining after 4 hours)”. Moreover, in data set [2], the “Tissue Distribution (% Plasma exposure at 10 min post IV dose) Brain” value was “++ (++ indicates distribution between 5 and 39%)”; the “Tissue Distribution (% Plasma exposure at 10 min post IV dose) Cerebellum” value was “++ (++ indicates distribution between 5 and 39%)”; the “Tissue Distribution (% Plasma exposure at 10 min post IV dose) Cortex” value was “++ (++ indicates distribution between 5 and 39%)”; the “Tissue Distribution (% Plasma exposure at 10 min post IV dose) Hippocampus” value is “++ (++ indicates distribution between 5 and 39%)”. Besides, in data set [2], the “Tissue Distribution (% Plasma exposure at 10 min post IV dose) Muscle” value is recorded as “++++ (++++ indicates distribution above 70%)” and the “Tissue Distribution (% Plasma exposure at 10 min post IV dose) Sciatic Nerve” value is on record as “++++ (++++ indicates distribution above 70%)”. The “Rat Plasma, compound remaining” value in data set [3] is listed as “+++ (+++ indicates 80-99% compound remaining after 4 hours)”. Further, the Potency entry in the data set on MDCK cells was “+++ (+++ indicates maximum potency at or above 1 nM)”.
On to `CCC(C)CN1CC2N(C(=O)c3ccc(O)cc3)CCC(=O)N2[C@@H](C)C1=O` (stereo partly shown) [Compound 8a], for which the “Human Plasma, compound remaining” value in data set [1] was “++ (++ indicates 40-79% compound remaining after 4 hours)”. Further, the “Rat Plasma, compound remaining” value in data set [3] is listed as “++++ (++++ indicates 100% compound remaining after 4 hours)”. Also, in the data set on MDCK cells, the Potency entry is given as “+++ (+++ indicates maximum potency at or above 1 nM)”.
Turning to `CCC(C)CN1CC2N(C(=O)c3ccc(C(F)(F)F)cc3)CCC(=O)N2[C@@H](C)C1=O` (stereo partly shown) [Compound 1a], the “Human Plasma, compound remaining” value in data set [1] is recorded as “++ (++ indicates 40-79% compound remaining after 4 hours)”. In data set [2], the “Tissue Distribution (% Plasma exposure at 10 min post IV dose) Brain” value is “++ (++ indicates distribution between 5 and 39%)”; the “Tissue Distribution (% Plasma exposure at 10 min post IV dose) Cerebellum” value was “++ (++ indicates distribution between 5 and 39%)”; the “Tissue Distribution (% Plasma exposure at 10 min post IV dose) Cortex” value was “++ (++ indicates distribution between 5 and 39%)”; the “Tissue Distribution (% Plasma exposure at 10 min post IV dose) Hippocampus” value was “++ (++ indicates distribution between 5 and 39%)”. For the same compound, the “Rat Plasma, compound remaining” value in data set [3] is listed as “++ (++ indicates 40-79% compound remaining after 4 hours)”. Besides, the Potency result with MDCK cells is “++++ (++++ indicates maximum potency at or above 0.1 nM)”.
